What was measured:
[1] = molecular target: T1, AMPA receptor GluA2/3 (Homo sapiens, UniProt P42262+P42263); experiment: Electrophysiology of Xenopus laevis oocytes expressing GluA2/3; assay type: cell-based; details: for inhibition of AMPA receptors (subunit GluA2/3) compared to decanoic acid: dose curve vs decanoic acid; for reduction of AMPA-R generated current in comparison to decanoic acid / reduction of AMPA-R generated current in comparison to the control / reduction of AMPA-R generated current in comparison to 4-BCCA: GluA2/3, 1 mM; for reduction of AMPA-R generated current in comparison to decanoic acid: P<0.01 for #181, #182, #184, P<0.001 for #176, #185; for reduction of AMPA-R generated current in comparison to the control: P<0.05 for #175, #177, P<0.001 for the others; for reduction of AMPA-R generated current in comparison to 4-BCCA: P<0.05 for #181, #184, P<0.01 for #182, P<0.001 for #176, #185
T1 construct: expressed in transfected cells; host or cells: Xenopus laevis oocytes injected with cRNA
Experimental: (§1) The AMPA receptor (flip isoform) cDNAs inserted in a SP6 polymerase expression vector (pSP6T) were a generous gift from Prof Ralf Schoepfer (NPP, UCL). RNA was transcribed in vitro from Mlu I linearized transcripts using the SP6 Promega RiboMax RNA synthesis kit (Madison, Wis.) according to manufacturer's protocols except for the addition of 0.75 mM capping nucleotide m7G(5′)ppp(5′)G (Promega, Madison, Wis.) and 1.6 mM GTP. cRNA concentrations and integrity were estimated by the intensity of fluorescence bands in RNA denaturating gels. AMPA receptor cRNAs were mixed in a nominal 1:1 ratio and approximately 5 ng was injected per oocyte.
Xenopus laevis oocytes were purchased from the European Xenopus Resource Centre, University of Portsmouth. Stage V to VI oocytes were mechanically dissected and then subjected to gentle shaking for approximately 30-50 min at room temperature with modified Barth's solution (in mM): NaCl 88, KCl 1, NaHCO3 2.4, MgCl2 0.82, CaCl2 0.77, Tris-Cl 15, adjusted to pH 7.4 with NaOH (Sigma-Aldrich, UK), supplemented with 50 IU/ml penicillin and 50 μg/ml streptomycin (Invitrogen, UK) and 50 μg/ml tetracycline (Sigma-Aldrich, UK) and 1% collagenase (type 1A). Healthy oocytes were manually defolliculated and the injections of cRNA for homomeric subunits alone (GluA1), or heteromeric mixtures of two subunits together (GluA2/GluA3) were made using an automated Drummond Nanoinject II injector (Broomall, Pa.). The oocytes were then incubated at 17° C. in modified Barth's solution for at least 48 hours before use in electrophysiological recordings.
Experiments were performed at room temperature (approximately 21-23° C.). An oocyte was placed in a recording chamber (0.3-0.5 ml volume) and perfused with ND96 solution (96 mM NaCl, 2 mM KCl, 1.8 mM CaCl2, 1 mM MgCl2, 5 mM HEPES, with pH adjusted to 7.5). Current and voltage electrodes were filled with 300 mM KCl and made from thin-walled borosilicate glass (GC150TF-7.5, Harvard Apparatus, Kent, UK) using a PC-10 electrode puller (Narashige Instruments, Japan) and had resistances of 0.5-2 MΩ. Oocytes were voltage-clamped to a holding potential of −50 mV or −60 mV using a Turbo TEC-03 amplifier (npi electronics, Tamm, Germany). Compounds were dissolved in distilled water or DMSO and dissolved in bathing solution to achieve their final concentrations during experiments, and were applied under gravity flow during the experiment by using a multi-valve perfusion system (VC3-8C, ALA Scientific Instruments, Farmingdale, N.Y.). The bath solutions were perfused at a rate of 10 ml/min. Recordings were filtered at 20 Hz and digitized at 100 Hz (Digidata 1322A, Molecular Devices, Sunnyvale, Calif.) before recording to computer hard disk. Data acquisition was performed using the Windows PC based programme, WinEDR v3.0.6 (John Dempster, University of Strathclyde, UK).
The data from the electrophysiology experiments were analyzed using GraphPad Prism software (GraphPad software, San Diego Calif., USA) and SPSS (IBM United Kingdom Limited). Statistical analysis was performed using ANOVA with Dunnett's or Tukey post hoc test, pair t-test or un-pair t-test. For the behavior experiment, the nonparametric test, Mann-Whitney test were used. Differences were considered as significant at P<0.05. […]

[2] = molecular target: T2, AMPA receptor GluA1/2 (Homo sapiens, UniProt P42261+P42262); experiment: Electrophysiology of Xenopus laevis oocytes expressing GluA1/2; assay type: cell-based; details: IC50 comparison, FIG. 2C
T2 construct: expressed in transfected cells; host or cells: Xenopus laevis oocytes injected with cRNA
Experimental: as §1
Xenopus laevis oocytes were purchased from the European Xenopus Resource Centre, University of Portsmouth. Stage V to VI oocytes were mechanically dissected and then subjected to gentle shaking for approximately 30-50 min at room temperature with modified Barth's solution (in mM): NaCl 88, KCl 1, NaHCO3 2.4, MgCl2 0.82, CaCl2 0.77, Tris-Cl 15, adjusted to pH 7.4 with NaOH (Sigma-Aldrich, UK), supplemented with 50 IU/ml penicillin and 50 μg/ml streptomycin (Invitrogen, UK) and 50 μg/ml tetracycline (Sigma-Aldrich, UK) and 1% collagenase (type 1A). […]
The data from the electrophysiology experiments were analyzed using GraphPad Prism software (GraphPad software, San Diego Calif., USA) and SPSS (IBM United Kingdom Limited). […]

T1 sequence (P42262 22-883 isoform P42262-2 limits assumed): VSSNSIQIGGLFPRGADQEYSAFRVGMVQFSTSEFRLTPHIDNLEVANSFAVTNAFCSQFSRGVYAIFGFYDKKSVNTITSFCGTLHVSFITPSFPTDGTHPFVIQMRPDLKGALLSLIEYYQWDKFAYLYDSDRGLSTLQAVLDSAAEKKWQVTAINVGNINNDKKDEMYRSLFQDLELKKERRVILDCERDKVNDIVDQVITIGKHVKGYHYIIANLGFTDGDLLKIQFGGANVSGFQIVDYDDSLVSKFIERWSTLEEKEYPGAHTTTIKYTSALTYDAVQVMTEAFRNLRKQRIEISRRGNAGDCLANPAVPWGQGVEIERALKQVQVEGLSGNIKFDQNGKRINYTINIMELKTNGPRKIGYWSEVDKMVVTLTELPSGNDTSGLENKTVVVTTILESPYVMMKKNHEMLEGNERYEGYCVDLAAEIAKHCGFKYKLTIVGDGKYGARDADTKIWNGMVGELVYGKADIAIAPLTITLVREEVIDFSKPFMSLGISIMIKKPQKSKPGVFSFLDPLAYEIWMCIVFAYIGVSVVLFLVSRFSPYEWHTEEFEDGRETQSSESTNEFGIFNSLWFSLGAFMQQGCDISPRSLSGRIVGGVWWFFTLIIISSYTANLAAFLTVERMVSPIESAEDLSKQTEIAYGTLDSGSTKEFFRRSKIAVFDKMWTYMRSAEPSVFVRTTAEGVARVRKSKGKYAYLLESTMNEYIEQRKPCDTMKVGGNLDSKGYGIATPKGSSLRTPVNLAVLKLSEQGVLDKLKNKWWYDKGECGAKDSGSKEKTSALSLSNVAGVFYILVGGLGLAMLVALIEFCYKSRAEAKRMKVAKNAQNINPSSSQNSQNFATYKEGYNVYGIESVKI
T1 sequence (P42263 29-894 isoform P42263-2 limits assumed): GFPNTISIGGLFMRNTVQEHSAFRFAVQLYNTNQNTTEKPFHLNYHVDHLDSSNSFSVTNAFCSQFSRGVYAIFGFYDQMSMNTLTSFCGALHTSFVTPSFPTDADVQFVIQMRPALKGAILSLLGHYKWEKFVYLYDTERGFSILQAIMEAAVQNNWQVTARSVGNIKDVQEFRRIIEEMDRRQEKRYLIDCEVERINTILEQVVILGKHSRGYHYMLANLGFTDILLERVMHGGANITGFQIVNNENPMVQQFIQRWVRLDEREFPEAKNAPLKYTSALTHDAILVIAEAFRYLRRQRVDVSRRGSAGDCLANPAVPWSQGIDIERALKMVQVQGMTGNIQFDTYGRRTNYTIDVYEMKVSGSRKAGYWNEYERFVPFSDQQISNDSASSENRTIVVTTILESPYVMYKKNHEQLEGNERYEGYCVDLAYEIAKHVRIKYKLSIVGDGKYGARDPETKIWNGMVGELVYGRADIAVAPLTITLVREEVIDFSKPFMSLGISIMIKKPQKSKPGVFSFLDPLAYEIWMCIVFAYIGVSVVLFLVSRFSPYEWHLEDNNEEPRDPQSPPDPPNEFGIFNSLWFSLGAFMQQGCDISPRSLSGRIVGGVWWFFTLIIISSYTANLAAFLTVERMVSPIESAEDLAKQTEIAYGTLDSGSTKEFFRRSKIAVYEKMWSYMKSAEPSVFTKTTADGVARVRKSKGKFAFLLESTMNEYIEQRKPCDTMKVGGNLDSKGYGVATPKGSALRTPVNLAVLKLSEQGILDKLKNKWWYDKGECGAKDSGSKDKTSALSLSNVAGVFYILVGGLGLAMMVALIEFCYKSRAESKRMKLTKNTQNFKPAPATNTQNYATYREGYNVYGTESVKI
T2 sequence (P42261 19-906 isoform P42261-2 limits assumed): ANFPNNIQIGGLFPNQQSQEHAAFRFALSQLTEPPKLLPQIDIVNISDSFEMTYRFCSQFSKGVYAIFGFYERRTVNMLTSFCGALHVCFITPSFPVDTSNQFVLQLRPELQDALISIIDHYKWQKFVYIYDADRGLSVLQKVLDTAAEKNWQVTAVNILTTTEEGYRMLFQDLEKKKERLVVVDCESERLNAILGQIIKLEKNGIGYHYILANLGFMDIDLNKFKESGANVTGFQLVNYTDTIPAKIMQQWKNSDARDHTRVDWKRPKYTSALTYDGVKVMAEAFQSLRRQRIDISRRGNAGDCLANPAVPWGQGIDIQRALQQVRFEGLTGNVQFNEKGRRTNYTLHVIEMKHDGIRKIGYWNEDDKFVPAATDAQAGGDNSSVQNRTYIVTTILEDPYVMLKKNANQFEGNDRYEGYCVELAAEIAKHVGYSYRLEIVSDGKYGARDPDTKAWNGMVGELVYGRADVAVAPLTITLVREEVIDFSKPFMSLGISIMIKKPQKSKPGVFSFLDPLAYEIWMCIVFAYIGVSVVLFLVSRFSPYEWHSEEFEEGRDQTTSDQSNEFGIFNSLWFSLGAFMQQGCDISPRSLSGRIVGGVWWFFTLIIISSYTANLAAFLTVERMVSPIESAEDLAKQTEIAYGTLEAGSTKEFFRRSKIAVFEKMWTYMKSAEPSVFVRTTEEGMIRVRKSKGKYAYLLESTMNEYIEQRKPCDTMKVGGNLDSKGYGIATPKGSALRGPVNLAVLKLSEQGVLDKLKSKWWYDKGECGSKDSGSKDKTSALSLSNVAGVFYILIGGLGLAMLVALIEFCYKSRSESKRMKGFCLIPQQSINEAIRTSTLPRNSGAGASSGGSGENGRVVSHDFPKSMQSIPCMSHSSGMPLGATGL
T2 sequence (P42262 22-883 isoform P42262-2 limits assumed): as the sequence (P42262 22-883 isoform P42262-2 limits assumed) above

Row | SMILES | inhibition of AMPA receptors (subunit GluA2/3) compared to decanoic acid [1] | inhibitory effect on AMPA receptors consisting of GluA1/2 subunits compared to decanoic acid [2] | reduction of AMPA-R generated current in comparison to decanoic acid [1] | reduction of AMPA-R generated current in comparison to the control [1] | reduction of AMPA-R generated current in comparison to 4-BCCA [1]
1 | CCCCCC1CCC(CC(=O)O)CC1 (racemic) [Compound 4-PCEA, 2-(4-pentylcyclohexyl)ethanoic acid] | more potent inhibition | enhanced inhibitory effect | – | – | –
2 | CC(C)CCC1CCC(C(=O)O)CC1 (stereo not shown) [compound 181, 4-(3-methylbutyl)cyclohexanecarboxylic acid] | – | – | significant reduction | significant reduction | significant reduction
3 | CC/C=C/C1CCC(C(=O)O)CC1 (stereo not shown) [compound 174, 4-[(1E)-but-1-en-1-yl]cyclohexanecarboxylic acid] | – | – | – | significant reduction | –
4 | CCCCC=C1CCC(CC(=O)O)CC1 (stereo not shown) [compound 182, (4-pentylidenecyclohexyl)acetic acid] | – | – | significant reduction | significant reduction | significant reduction
5 | CCCCC1CCC(C(=O)O)NC1 (stereo not shown) [compound 178, 5-butylpiperidine-2-carboxylic acid] | – | – | – | significant reduction | –
6 | CCCOC1CCC(C(=O)O)CC1 (stereo not shown) [compound 180, 4-propoxycyclohexanecarboxylic acid] | – | – | – | significant reduction | –
7 | CCOCC1CCC(C(=O)O)CC1 (stereo not shown) [compound 177, 4-(ethoxymethyl)cyclohexancarboxylic acid] | – | – | – | significant reduction | –
8 | CCCOCC1CCC(CC(=O)O)CC1 (stereo not shown) [compound 175, 4-(propoxymethyl)cyclohexyl acetic acid] | – | – | – | significant reduction | –
9 | CCCC(C)CC1CCC(CC(=O)O)CC1 (stereo not shown) [compound 185, [4-(2-methylpentyl)cyclohexyl]acetic acid] | – | – | significant reduction | significant reduction | significant reduction
10 | CCC(C)CC1CCC(C(=O)O)CC1 (stereo not shown) [compound 184, 4-(2-methylbutyl)cyclohexanecarboxylic acid] | – | – | significant reduction | significant reduction | significant reduction
11 | CC(C)CCCC1CCC(CC(=O)O)CC1 (stereo not shown) [compound 172, [4-(4-methylpentyl)cyclohexyl]acetic acid] | – | – | – | significant reduction | –
12 | CCCCCc1ccc(CC(=O)O)cc1 [Compound 4-PPEA, 4-pentylphenylethanoic acid] | more potent inhibition | – | – | – | –
13 | CCC(C)CCC1CCC(CC(=O)O)CC1 (stereo not shown) [compound 176, [4-(3-methylpentyl)cyclohexyl]acetic acid] | – | – | significant reduction | significant reduction | significant reduction
14 | CCNCC1CCC(CC(=O)O)CC1 (stereo not shown) [compound 179, {4-[(ethylamino)methyl]cyclohexyl}acetic acid] | – | – | – | significant reduction | –

Source: patent US10301263B2, “Anticonvulsant compound” (Royal Holloway and Bedford New College, priority 2014, dated 2019)
